{"source": "patent US20260216342A1", "about": "“COMPOUNDS FOR NUCLEIC ACID CLEAVAGE” (priority 2023, published 2026)", "key": {"SARS-CoV-2 [1]": {"tested_on": "SARS-CoV-2", "assay": "Viral plaque-forming units by plaque assay", "assay_type": "cell-based", "details": "supernatants of cultures treated with 6 mM for 24 h, vs vehicle control"}, "SARS-CoV-2 [2]": {"tested_on": "SARS-CoV-2", "assay_type": "in vivo, K18-hACE2 transgenic mice", "details": "10 mg/kg intranasally 1 hour pre-infection and 3 hours post-infection, day 5, plaque assay"}, "[3]": {"tested_on": "RNA extracted from SARS-CoV-2", "assay": "Gel electrophoresis of SARS-CoV-2 RNA after degrader incubation", "assay_type": "biochemical", "details": "100 μM, 2 h at 37° C.; FIG. 5f"}, "[4]": {"tested_on": "RNA 69-er corresponding to the coronaviral pseudoknot", "assay_type": "biochemical", "details": "1 mM, 3 h incubation at 37° C."}, "SARS-CoV-2 [5]": {"tested_on": "SARS-CoV-2", "assay": "Virucidal activity on cell free virions", "details": "6 μM, 1 h at 37° C., 1000 PFU, plaque assay"}, "SARS-CoV-2 [6]": {"tested_on": "SARS-CoV-2", "assay_type": "cell-based", "details": "Vero CCL-81, MOI 0.05, 24 h"}, "G4-forming RNA oligomer": {"tested_on": "G4-forming RNA oligomer", "assay": "Degradation of G4-forming RNA oligomer by non-covalent PDS-based degraders", "assay_type": "biochemical", "details": "200 μM, CuSO4/THPTA/NaAsc, 37° C. for 4 h, LC-MS; FIG. 15", "description": "[…]. The mixture was heated at 95° C. for 5 minutes, then kept on ice for 30 minutes. CuSO4 (final concentration 200 μM), THPTA (700 μM) and NaAsc (50 mM) were then added, alongside with CBX-PDS, PDS-deg6 or PDS-Amlmi (200 μM). The reaction mixture was incubated at 37° C. for 4 h, quenched with EDTA (final concentration 12 mM) and then kept at 4° C. The reaction mixtures were analysed by LC-MS."}, "E. coli ribosome": {"tested_on": "E. coli ribosome", "assay": "In vitro degradation of E. coli ribosome (agarose gel)", "assay_type": "biochemical", "details": "15 mM to 0.47 mM, 18 hours at 37° C.", "description": "The degradation activity was measured in an in vitro assay, targeting the E. coli ribosome. 200 μM […] were incubated with degrader in different concentration, ranging from 15 mM to 0.47 mM, for 18 hours at 37° C. Evaluation was made by agarose gel analysis."}}}
{"compound": "CCOC(=O)c1ccccc1NC(=O)N1CCCN(Cc2csc(C)n2)CC1", "note": "[MTDB]", "values": [{"measurement": "number of viral plaques", "setting": "SARS-CoV-2 [1]", "value": "only showed decreased number of viral plaques when added before infection"}, {"measurement": "lung viral load", "setting": "SARS-CoV-2 [2]", "value": "No differences in lung viral load"}, {"measurement": "degradation of full-length coronaviral RNA on agarose gel", "setting": "[3]", "value": "the two control molecules do not"}, {"measurement": "degradation of RNA pseudoknot", "setting": "[4]", "value": "no degradation"}, {"measurement": "virucidal effect on cell free virus", "setting": "SARS-CoV-2 [5]", "value": "no virucidal effect was observed"}, {"measurement": "antiviral effect (coronaviral RNA in cells)", "setting": "SARS-CoV-2 [6]; added before or after infection", "value": "did not exhibit an antiviral effect"}, {"measurement": "50% inhibitory concentration (IC50)", "setting": "SARS-CoV-2 [6]; drug added 1 h before or 1 h after infection", "value": "did not inhibit viral replication and thus IC50 values could not be determined"}]}
{"compound": "CN(C)Cc1nccn1CCOCCOCCOCCOCCOCCn1cc(COc2cc(C(=O)Nc3cc(OCCN)c4ccccc4n3)nc(C(=O)Nc3cc(OCCN)c4ccccc4n3)c2)nn1", "note": "[PDS-Amimi]", "values": [{"measurement": "degrader potency on G4-forming RNA oligomer", "setting": "G4-forming RNA oligomer", "value": "more potent degrader than PDS-deg6"}]}
{"compound": "O=C(N[C@H](CO)[C@H](O)c1ccc([N+](=O)[O-])cc1)C(Cl)Cl", "note": "[chloramphenicol, Chloramphenicol]", "values": [{"measurement": "ribosome degradation", "setting": "E. coli ribosome", "value": "no degradation"}]}
{"compound": "chloramphenicol-2PEG-imidazole degrader [18b]", "values": [{"measurement": "ribosome degradation", "setting": "E. coli ribosome", "value": "ribosome degradation could be observed at a concentration of 15 mM"}]}
{"compound": "chloramphenicol-6PEG-imidazole degrader [18a]", "values": [{"measurement": "ribosome degradation", "setting": "E. coli ribosome", "value": "no degradation visible"}]}
{"compound": "chloramphenicol-ethyl-imidazole degrader [18c]", "values": [{"measurement": "ribosome degradation", "setting": "E. coli ribosome", "value": "no degradation visible"}]}
